Measured values as given in US20210138025A1, “CATIONIC PEPTIDES WITH IMMUNOMODULATORY AND/OR ANTI-BIOFILM ACTIVITIES” (priority 2018, published 2021).
Non-standard residues stand in square brackets, D forms with d. No end group written: not given here. hArg = N=C(N)NCCCC[C@H](N)C(=O)O; Agb = N=C(N)NCC[C@H](N)C(=O)O; Agp = N=C(N)NC[C@H](N)C(=O)O; Orn = NCCC[C@H](N)C(=O)O; Dab = NCC[C@H](N)C(=O)O; Dap = NC[C@H](N)C(=O)O

Tested on: S. aureus (MRSA SAP0017)
Type: cell-based, Staphylococcus aureus
Conditions: SPOT synthesized control peptides, determined as in Table 5; Table 7
Experimental: Methods of assessment of anti-biofilm activity: MRSA S. aureus strain SAP0017 biofilm formation was initially analyzed using a static abiotic solid surface assay as described elsewhere (de la Fuente-Nunez et al., 2012) and shown graphically in FIG. 2. Dilutions (1/100) of overnight cultures were incubated in BM2 biofilm-adjusted medium [62 mM potassium phosphate buffer (pH 7), 7 mM (NH4)2SO4, 2 mM MgSO4, 10 μM FeSO4, 0.4% (wt/vol) glucose, 0.5% (wt/vol) Casamino Acids], or a nutrient rich medium such as Tryptic soy broth supplemented with 1% glucose, in polypropylene microtiter plates (Falcon, United States) in the absence (control) or presence of peptide. Peptide was added at time zero (prior to adding the diluted, overnight cultures) in varying concentrations, and the amount biofilm formation was recorded after 22-46 h incubation for most bacteria. To quantify biofilm growth, planktonic cells were removed and biofilm cells adhering to the side of the wells were stained with crystal violet, and absorbance at 595 nm was measured using a microtiter plate reader (Bio-Tek Instruments Inc., United States).

Substance | % Biofilm Inhibition
C58 (V[Agp]LIVAVRIWRR) [Peptide C58] | 96%
C59 (VR[Agp]IVAVRIWRR-NH2; N-terminus assumed; SMILES CC[C@H](C)[C@H](NC(=O)[C@H](CCCNC(=N)N)NC(=O)[C@@H](NC(=O)[C@H](C)NC(=O)[C@@H](NC(=O)[C@@H](NC(=O)[C@H](CNC(=N)N)NC(=O)[C@H](CCCNC(=N)N)NC(=O)[C@@H](N)C(C)C)[C@@H](C)CC)C(C)C)C(C)C)C(=O)N[C@@H](Cc1c[nH]c2ccccc12)C(=O)N[C@@H](CCCNC(=N)N)C(=O)N[C@@H](CCCNC(=N)N)C(N)=O) [Peptide C59] | 104%
C60 (VRL[Agp]VAVRIWRR-NH2; N-terminus assumed; SMILES CC[C@H](C)[C@H](NC(=O)[C@H](CCCNC(=N)N)NC(=O)[C@@H](NC(=O)[C@H](C)NC(=O)[C@@H](NC(=O)[C@H](CNC(=N)N)NC(=O)[C@H](CC(C)C)NC(=O)[C@H](CCCNC(=N)N)NC(=O)[C@@H](N)C(C)C)C(C)C)C(C)C)C(=O)N[C@@H](Cc1c[nH]c2ccccc12)C(=O)N[C@@H](CCCNC(=N)N)C(=O)N[C@@H](CCCNC(=N)N)C(N)=O) [Peptide C60] | 104%
C61 (VRLI[Agp]AVRIWRR-NH2; N-terminus assumed; SMILES CC[C@H](C)[C@H](NC(=O)[C@H](CC(C)C)NC(=O)[C@H](CCCNC(=N)N)NC(=O)[C@@H](N)C(C)C)C(=O)N[C@@H](CNC(=N)N)C(=O)N[C@@H](C)C(=O)N[C@H](C(=O)N[C@@H](CCCNC(=N)N)C(=O)N[C@H](C(=O)N[C@@H](Cc1c[nH]c2ccccc12)C(=O)N[C@@H](CCCNC(=N)N)C(=O)N[C@@H](CCCNC(=N)N)C(N)=O)[C@@H](C)CC)C(C)C) [Peptide C61] | 101%
C62 (VRLIV[Agp]VRIWRR) [Peptide C62] | 106%
C63 (VRLIVA[Agp]RIWRR-NH2; N-terminus assumed; SMILES CC[C@H](C)[C@H](NC(=O)[C@H](CCCNC(=N)N)NC(=O)[C@H](CNC(=N)N)NC(=O)[C@H](C)NC(=O)[C@@H](NC(=O)[C@@H](NC(=O)[C@H](CC(C)C)NC(=O)[C@H](CCCNC(=N)N)NC(=O)[C@@H](N)C(C)C)[C@@H](C)CC)C(C)C)C(=O)N[C@@H](Cc1c[nH]c2ccccc12)C(=O)N[C@@H](CCCNC(=N)N)C(=O)N[C@@H](CCCNC(=N)N)C(N)=O) [Peptide C63] | 105%
C64 (VRLIVAV[Agp]IWRR) [Peptide C64] | 107%
C65 (VRLIVAVR[Agp]WRR) [Peptide C65] | 107%
C66 (VRLIVAVRI[Agp]RR) [Peptide C66] | 107%
C67 (VRLIVAVRIW[Agp]R-NH2; N-terminus assumed; SMILES CC[C@H](C)[C@H](NC(=O)[C@H](CCCNC(=N)N)NC(=O)[C@@H](NC(=O)[C@H](C)NC(=O)[C@@H](NC(=O)[C@@H](NC(=O)[C@H](CC(C)C)NC(=O)[C@H](CCCNC(=N)N)NC(=O)[C@@H](N)C(C)C)[C@@H](C)CC)C(C)C)C(C)C)C(=O)N[C@@H](Cc1c[nH]c2ccccc12)C(=O)N[C@@H](CNC(=N)N)C(=O)N[C@@H](CCCNC(=N)N)C(N)=O) [Peptide C67] | 105%
C68 (VRLIVAVRIWR[Agp]) [Peptide C68] | 106%
C69 (V[Agb]LIVAVRIWRR) [Peptide C69] | 81%
C70 (VR[Agb]IVAVRIWRR) [Peptide C70] | 98%
C71 (VRL[Agb]VAVRIWRR; not fully specified (C-terminus); printed as VRLGbutVAVRIWRR) [Peptide C71] | 103%
C72 (VRLI[Agb]AVRIWRR; not fully specified (C-terminus); printed as VRLIGbutAVRIWRR) [Peptide C72] | 105%
C74 (VRLIVA[Agb]RIWRR) [Peptide C74] | 106%
C75 (VRLIVAV[Agb]IWRR; not fully specified (C-terminus); printed as VRLIVAVGbutIWRR) [Peptide C75] | 103%
C76 (VRLIVAVR[Agb]WRR; not fully specified (C-terminus); printed as VRLIVAVRGbutWRR) [Peptide C76] | 104%
C77 (VRLIVAVRI[Agb]RR; not fully specified (C-terminus); printed as VRLIVAVRIGbutRR) [Peptide C77] | 101%
C78 (VRLIVAVRIW[Agb]R; not fully specified (C-terminus); printed as VRLIVAVRIWGbutR) [Peptide C78] | 101%
C79 (VRLIVAVRIWR[Agb]) [Peptide C79] | 72%
C80 (V[hArg]LIVAVRIWRR) [Peptide C80] | 99%
C81 (VR[hArg]IVAVRIWRR) [Peptide C81] | 107%
C82 (VRL[hArg]VAVRIWRR) [Peptide C82] | 106%

Substance | % Biofilm Inhibition
C83 (VRLI[hArg]AVRIWRR) [Peptide C83] | 106%
C84 (VRLIVA[hArg]RIWRR; not fully specified (C-terminus)) [Peptide C84] | 105%
C85 (VRLIVAVR[hArg]WRR) [Peptide C85] | 99%
C86 (VRLIVAVRI[hArg]RR) [Peptide C86] | 75%
C87 (V[Dap]LIVAVRIWRR) [Peptide C87] | 73%
C88 (VR[Dap]IVAVRIWRR) [Peptide C88] | 104%
C89 (VRL[Dap]VAVRIWRR) [Peptide C89] | 99%
C91 (VRLIV[Dap]VRIWRR) [Peptide C91] | 76%
C92 (VRLIVA[Dap]RIWRR) [Peptide C92] | 103%
C93 (VRLIVAV[Dap]IWRR) [Peptide C93] | 71%
C94 (VRLIVAVR[Dap]WRR) [Peptide C94] | 92%
C95 (V[Dab]LIVAVRIWRR) [Peptide C95] | 71%
C96 (VR[Dab]IVAVRIWRR) [Peptide C96] | 89%
C97 (VRL[Dab]VAVRIWRR; not fully specified (C-terminus)) [Peptide C97] | 102%
C98 (VRLI[Dab]AVRIWRR; not fully specified (C-terminus)) [Peptide C98] | 103%
C99 (VRLIV[Dab]VRIWRR; not fully specified (C-terminus)) [Peptide C99] | 100%
C100 (VRLIVA[Dab]RIWRR-NH2; N-terminus assumed; SMILES CC[C@H](C)[C@H](NC(=O)[C@H](CCCNC(=N)N)NC(=O)[C@H](CCN)NC(=O)[C@H](C)NC(=O)[C@@H](NC(=O)[C@@H](NC(=O)[C@H](CC(C)C)NC(=O)[C@H](CCCNC(=N)N)NC(=O)[C@@H](N)C(C)C)[C@@H](C)CC)C(C)C)C(=O)N[C@@H](Cc1c[nH]c2ccccc12)C(=O)N[C@@H](CCCNC(=N)N)C(=O)N[C@@H](CCCNC(=N)N)C(N)=O) [Peptide C100] | 104%
C101 (VRLIVAV[Dab]IWRR-NH2; N-terminus assumed; SMILES CC[C@H](C)[C@H](NC(=O)[C@H](CCN)NC(=O)[C@@H](NC(=O)[C@H](C)NC(=O)[C@@H](NC(=O)[C@@H](NC(=O)[C@H](CC(C)C)NC(=O)[C@H](CCCNC(=N)N)NC(=O)[C@@H](N)C(C)C)[C@@H](C)CC)C(C)C)C(C)C)C(=O)N[C@@H](Cc1c[nH]c2ccccc12)C(=O)N[C@@H](CCCNC(=N)N)C(=O)N[C@@H](CCCNC(=N)N)C(N)=O) [Peptide C101] | 103%
C102 (VRLIVAVR[Dab]WRR-NH2; N-terminus assumed; SMILES CC[C@H](C)[C@H](NC(=O)[C@H](CC(C)C)NC(=O)[C@H](CCCNC(=N)N)NC(=O)[C@@H](N)C(C)C)C(=O)N[C@H](C(=O)N[C@@H](C)C(=O)N[C@H](C(=O)N[C@@H](CCCNC(=N)N)C(=O)N[C@@H](CCN)C(=O)N[C@@H](Cc1c[nH]c2ccccc12)C(=O)N[C@@H](CCCNC(=N)N)C(=O)N[C@@H](CCCNC(=N)N)C(N)=O)C(C)C)C(C)C) [Peptide C102] | 104%
C103 (VRLIVAVRI[Dab]RR-NH2; N-terminus assumed; SMILES CC[C@H](C)[C@H](NC(=O)[C@H](CCCNC(=N)N)NC(=O)[C@@H](NC(=O)[C@H](C)NC(=O)[C@@H](NC(=O)[C@@H](NC(=O)[C@H](CC(C)C)NC(=O)[C@H](CCCNC(=N)N)NC(=O)[C@@H](N)C(C)C)[C@@H](C)CC)C(C)C)C(C)C)C(=O)N[C@@H](CCN)C(=O)N[C@@H](CCCNC(=N)N)C(=O)N[C@@H](CCCNC(=N)N)C(N)=O) [Peptide C103] | 102%
C104 (VRLIVAVRIW[Dab]R) [Peptide C104] | 93%
C105 (VRLIVAVRIWR[Dab]) [Peptide C105] | 96%
C106 (VR[Orn]IVAVRIWRR-NH2; N-terminus assumed; SMILES CC[C@H](C)[C@H](NC(=O)[C@H](CCCNC(=N)N)NC(=O)[C@@H](NC(=O)[C@H](C)NC(=O)[C@@H](NC(=O)[C@@H](NC(=O)[C@H](CCCN)NC(=O)[C@H](CCCNC(=N)N)NC(=O)[C@@H](N)C(C)C)[C@@H](C)CC)C(C)C)C(C)C)C(=O)N[C@@H](Cc1c[nH]c2ccccc12)C(=O)N[C@@H](CCCNC(=N)N)C(=O)N[C@@H](CCCNC(=N)N)C(N)=O) [Peptide C106] | 104%
C107 (VRL[Orn]VAVRIWRR) [Peptide C107] | 71%
